Measurements published in US20220211810A1 (priority 2019, published 2022).

Key:
[1] = system: experimental autoimmune uveitis (EAU) in C57/B16 mice; test: Experimental autoimmune uveitis (EAU), topical treatment, clinical score by fundoscopy; type: in vivo, mouse; settings: twice daily 2-5 μl for 7 days, Maxidex, day 21 post immunization, n=12 eyes
[2] = biological target: T1, nomacopan (EV576, rVA576, OmCI protein, Coversin), Ornithodoros moubata, amino acids 19 to 168 of SEQ ID NO: 2 (SEQ ID NO: 4) (Ornithodoros moubata, UniProt Q5YD59); test: LTB4 binding by fluorescence titration (protein Tyr/Trp fluorescence quenching)
T1 sequence (Q5YD59 19-168): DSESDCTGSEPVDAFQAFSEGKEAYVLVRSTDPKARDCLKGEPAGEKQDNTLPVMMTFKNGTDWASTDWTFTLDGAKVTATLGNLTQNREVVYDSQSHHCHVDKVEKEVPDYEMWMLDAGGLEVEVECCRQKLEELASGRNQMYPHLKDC
Method: This may be carried out as follows:
Purified 100 nM solutions of nomacopan, in 2 mL PBS were applied in a quartz cuvette (10 mm path length; Hellma, Mülheim, Germany) equipped with a magnetic stirrer. Temperature was adjusted to 20° C. and, after equilibrium was reached, protein Tyr/Trp fluorescence was excited at 280 nm (slit width: 15 nm). The fluorescence emission was measured at 340 nm (slit width: 16 nm) corresponding to the emission maximum. […] For calculation of the KD value, data was normalized to an initial fluorescence intensity of 100%, the inner filter effect was corrected using a titration of 3 μM N-acetyl-tryptophanamide solution and data was plotted against the corresponding ligand concentration. Then, non-linear least squares regression based on the law of mass action for bimolecular complex formation was used to fit the data with Origin software version 8.5 (OriginLab, Northampton, Mass., USA) using a published formula (Breustedt et al., 2006).

Compound	clinical score compared with L-nomacopan treated mice [1]	Kd [2] [nM]
C[C@@H]1C[C@H]2[C@@H]3CCC4=CC(=O)C=C[C@]4(C)[C@@]3(F)[C@@H](O)C[C@]2(C)[C@@]1(O)C(=O)CO [dexamethasone]	in line with	–
CCCCC/C=C\C[C@@H](O)/C=C/C=C/C=C\[C@@H](O)CCCC(=O)O [LTB4, Leukotriene B4]	–	0.2 to 0.3
